Assay results: publication PMC11069587, “An Elastin-like Polypeptide-fusion peptide targeting capsid-tegument interface as an antiviral against cytomegalovirus infection” (Scientific Reports, 2024)
Where no end group is shown, it is not given here.

Tests used:
uninfected MEFs = assay: Cell viability of uninfected MEFs, trypan blue exclusion; conditions: 80 μM, mock-infected, 3 days
Procedure: Cells were harvested at 3 dpi, and cell viability was assessed by trypan blue exclusion assay for both uninfected and infected groups. The standard error of the mean from three different experiments were plotted as error bars.
MEFs were plated in 24-well tissue-culture plates and grown to confluency in triplicates. […] At 3 dpi, the CMC (carboxymethylcellulose) + DMEM overlay was removed. The cells were then harvested by trypsinization to determine the cell viability using trypan blue exclusion with a TC20 automated cell counter (BioRad Laboratories, Hercules, CA, USA) following the manufacturer’s protocol. […] The cells were washed twice with PBS and overlayed with CMC + DMEM and incubated for 3 days. […] The percentage of cell survival was plotted for different treatment groups, and data were analyzed by one-way ANOVA using Tukey post hoc test.

HIV = system: HIV; parameters: method as in PMID 8312047; conditions: cited from earlier work
Hepatitis B and D = system: Hepatitis B and D; parameters: method as in PMID 20007265; conditions: cited from earlier work
[1] = Plasma pharmacokinetics of rhodamine-labeled constructs in mice; format: in vivo, mouse (Balb/c)
Procedure: (§1) Plasma pharmacokinetics (a) were determined for 72 h after injection. In a separate cohort of mice (females, n = 4 per group), major organ biodistribution was determined 4 h after injection by ex vivo whole-organ fluorescence imaging (b and c). The standard deviations were plotted as error bars.
(§2) Blood samples were collected from the tail vein at different time points and centrifuged to collect plasma. […] For the biodistribution, a separate cohort of mice (female, n = 4 per group) were euthanized four hours after the injection with proteins or saline control, and the brain, spleen, liver, lungs, kidneys, and heart were harvested and assessed by ex-vivo whole organ imaging using the In Vivo Imaging System (IVIS, Perkin Elmer). […] To determine pharmacokinetic parameters, plasma concentrations during the clearance phase (from the peak of the plasma concentration curve) were fit using a two-compartment pharmacokinetic model as described previously using GraphPad Prism[32].

[2] = Organ biodistribution by ex vivo whole-organ fluorescence imaging in mice; parameters: species or system mouse (Balb/c); conditions: rhodamine-labeled, subcutaneous, 4 h post-injection, ex vivo IVIS imaging, female mice n = 4
Procedure: as §1, §2

Compound: Nc1nc(O)c2ncn(COC(CO)CO)c2n1 [GCV, ganciclovir]
- cell viability of uninfected MEFs (uninfected MEFs): not affected

Compound: Enfuvirtide
- IC50 (HIV): nanomolar range

Compound: Myrcludex B
- concentrations at which efficacy was demonstrated (Hepatitis B and D): picomolar concentrations

Compound: NKLVYTGRL [P10]
- Area Under Curve ([1]; 500 nmol/Kg subcutaneous, female mice n = 4 per group, plasma fluorescence over 72 h): 1185 ± 383 µM·h
- time after which clearance from plasma began ([1]; subcutaneous, mouse plasma): 2 h
- accumulation in the kidneys [2]: much lower levels than ELP-P10
- accumulation in the liver [2]: much lower levels than ELP-P10
